Laboratory results taken from ChEMBL document CHEMBL2440076, “New triarylpyrazoles as broad-spectrum anticancer agents: design, synthesis, and biological evaluation” (Eur J Med Chem, 2013).

How the values were obtained:
Assay type in all cases: functional
[1] = tested on: OVCAR-3; assay: Growth inhibition of human OVCAR3 cells assessed as cell growth at 3X10'-8 M after 48 hrs by sulforhodamine B assay; settings: OVCAR-3, 48 h, read-out: Activity
[2] = Growth inhibition of human Hs 578T cells assessed as cell growth at 3X10'-8 M after 48 hrs by sulforhodamine B assay; settings: read-out: Activity
[3] = tested on: NCI-H322M; assay: Growth inhibition of human NCI-H322M cells assessed as cell growth at 3X10'-6 M after 48 hrs by sulforhodamine B assay; settings: read-out: Activity
[4] = tested on: OVCAR-3; assay: Growth inhibition of human OVCAR3 cells assessed as cell growth at 3X10'-5 M after 48 hrs by sulforhodamine B assay; settings: OVCAR-3, 48 h, read-out: Activity
[5] = tested on: SK-OV-3; assay: Growth inhibition of human SKOV3 cells assessed as cell growth at 3X10'-8 M after 48 hrs by sulforhodamine B assay; settings: SK-OV-3, 48 h, read-out: Activity
[6] = tested on: OVCAR-5; assay: Growth inhibition of human OVCAR5 cells assessed as cell growth at 3X10'-9 M after 48 hrs by sulforhodamine B assay; settings: OVCAR-5, 48 h, read-out: Activity
[7] = tested on: DU-145; assay: Growth inhibition of human DU145 cells assessed as cell growth at 3X10'-8 M after 48 hrs by sulforhodamine B assay; settings: DU-145, 48 h, read-out: Activity
[8] = tested on: UACC-257; assay: Growth inhibition of human UACC257 cells assessed as cell growth at 3X10'-9 M after 48 hrs by sulforhodamine B assay; settings: UACC-257, 48 h, read-out: Activity
[9] = tested on: TK-10; assay: Growth inhibition of human TK10 cells assessed as cell growth at 3X10'-7 M after 48 hrs by sulforhodamine B assay; settings: TK-10, 48 h, read-out: Activity
[10] = tested on: HCT-116; assay: Growth inhibition of human HCT116 cells assessed as cell growth at 3X10'-7 M after 48 hrs by sulforhodamine B assay; settings: HCT-116, 48 h, read-out: Activity
[11] = tested on: OVCAR-5; assay: Growth inhibition of human OVCAR5 cells assessed as cell growth at 3X10'-7 M after 48 hrs by sulforhodamine B assay; settings: OVCAR-5, 48 h, read-out: Activity
[12] = tested on: UACC-62; assay: Growth inhibition of human UACC62 cells assessed as cell growth at 3X10'-8 M after 48 hrs by sulforhodamine B assay; settings: UACC-62, 48 h, read-out: Activity
[13] = tested on: IGROV-1; assay: Growth inhibition of human IGROV1 cells assessed as cell growth at 3X10'-8 M after 48 hrs by sulforhodamine B assay; settings: IGROV-1, 48 h, read-out: Activity
[14] = tested on: HOP-62; assay: Growth inhibition of human HOP62 cells assessed as cell growth at 3X10'-9 M after 48 hrs by sulforhodamine B assay; settings: HOP-62, 48 h, read-out: Activity
[15] = tested on: SF-295; assay: Growth inhibition of human SF295 cells assessed as cell growth at 3X10'-8 M after 48 hrs by sulforhodamine B assay; settings: SF-295, 48 h, read-out: Activity
[16] = tested on: A549; assay: Growth inhibition of human A549/ATCC cells assessed as cell growth at 3X10'-5 M after 48 hrs by sulforhodamine B assay; settings: A549, 48 h, read-out: Activity
[17] = tested on: MDA-MB-468; assay: Growth inhibition of human MDA-MB-468 cells assessed as cell growth at 3X10'-9 M after 48 hrs by sulforhodamine B assay; settings: MDA-MB-468, 48 h, read-out: Activity
[18] = tested on: MDA-MB-468; assay: Growth inhibition of human MDA-MB-468 cells assessed as cell growth at 3X10'-8 M after 48 hrs by sulforhodamine B assay; settings: MDA-MB-468, 48 h, read-out: Activity
[19] = tested on: RPMI-8226; assay: Growth inhibition of human RPMI8226 cells assessed as cell growth at 3X10'-8 M after 48 hrs by sulforhodamine B assay; settings: RPMI-8226, 48 h, read-out: Activity
[20] = tested on: MDA-MB-468; assay: Growth inhibition of human MDA-MB-468 cells assessed as cell growth at 3X10'-5 M after 48 hrs by sulforhodamine B assay; settings: MDA-MB-468, 48 h, read-out: Activity
[21] = tested on: CAKI-1; assay: Growth inhibition of human CAKI-1 cells assessed as cell growth at 3X10'-6 M after 48 hrs by sulforhodamine B assay; settings: CAKI-1, 48 h, read-out: Activity
[22] = tested on: Malme-3M; assay: Growth inhibition of human MALME-3M cells assessed as cell growth at 3X10'-9 M after 48 hrs by sulforhodamine B assay; settings: read-out: Activity
[23] = tested on: SN12C; assay: Growth inhibition of human SN12C cells assessed as cell growth at 3X10'-9 M after 48 hrs by sulforhodamine B assay; settings: read-out: Activity
[24] = tested on: A549; assay: Growth inhibition of human A549/ATCC cells assessed as cell growth at 3X10'-7 M after 48 hrs by sulforhodamine B assay; settings: A549, 48 h, read-out: Activity
[25] = Growth inhibition of human Hs 578T cells assessed as cell growth at 3X10'-5 M after 48 hrs by sulforhodamine B assay; settings: read-out: Activity
[26] = tested on: SK-OV-3; assay: Growth inhibition of human SKOV3 cells assessed as cell growth at 3X10'-5 M after 48 hrs by sulforhodamine B assay; settings: SK-OV-3, 48 h, read-out: Activity
[27] = tested on: SF-268; assay: Growth inhibition of human SF268 cells assessed as cell growth at 3X10'-8 M after 48 hrs by sulforhodamine B assay; settings: SF-268, 48 h, read-out: Activity
[28] = tested on: NCI-H522; assay: Growth inhibition of human NCI-H522 cells assessed as cell growth at 3X10'-9 M after 48 hrs by sulforhodamine B assay; settings: NCI-H522, 48 h, read-out: Activity
[29] = tested on: M14; assay: Growth inhibition of human M14 cells assessed as cell growth at 3X10'-9 M after 48 hrs by sulforhodamine B assay; settings: M14, 48 h, read-out: Activity
[30] = tested on: SNB-75; assay: Growth inhibition of human SNB75 cells assessed as cell growth at 3X10'-6 M after 48 hrs by sulforhodamine B assay; settings: SNB-75, 48 h, read-out: Activity
[31] = tested on: CCRF-CEM; assay: Growth inhibition of human CCRF-CEM cells assessed as cell growth at 3X10'-7 M after 48 hrs by sulforhodamine B assay; settings: read-out: Activity
[32] = tested on: 786-0; assay: Growth inhibition of human 786-0 cells assessed as cell growth at 3X10'-9 M after 48 hrs by sulforhodamine B assay; settings: 786-0, 48 h, read-out: Activity
[33] = tested on: SK-MEL-2; assay: Growth inhibition of human SK-MEL-2 cells assessed as cell growth at 3X10'-9 M after 48 hrs by sulforhodamine B assay; settings: SK-MEL-2, 48 h, read-out: Activity
[34] = tested on: SN12C; assay: Growth inhibition of human SN12C cells assessed as cell growth at 3X10'-5 M after 48 hrs by sulforhodamine B assay; settings: read-out: Activity
[35] = tested on: SN12C; assay: Growth inhibition of human SN12C cells assessed as cell growth at 3X10'-8 M after 48 hrs by sulforhodamine B assay; settings: read-out: Activity
[36] = tested on: MOLT-4; assay: Growth inhibition of human MOLT4 cells assessed as cell growth at 3X10'-6 M after 48 hrs by sulforhodamine B assay; settings: MOLT-4, 48 h, read-out: Activity
[37] = tested on: OVCAR-8; assay: Growth inhibition of human OVCAR8 cells assessed as cell growth at 3X10'-7 M after 48 hrs by sulforhodamine B assay; settings: OVCAR-8, 48 h, read-out: Activity

Structure (SMILES) | growth at 0.03 µM [1] [%] | growth at 0.03 µM [2] [%] | growth at 3 µM [3] [%] | growth at 30 µM [4] [%] | growth at 0.03 µM [5] [%] | growth at 0.003 µM [6] [%] | growth at 0.03 µM [7] [%] | growth at 0.003 µM [8] [%] | growth at 0.3 µM [9] [%] | growth at 0.3 µM [10] [%] | growth at 0.3 µM [11] [%] | growth at 0.03 µM [12] [%] | growth at 0.03 µM [13] [%] | growth at 0.003 µM [14] [%] | growth at 30 µM [16] [%] | growth at 0.003 µM [17] [%] | growth at 0.03 µM [18] [%] | growth at 0.03 µM [19] [%] | growth at 30 µM [20] [%] | growth at 3 µM [21] [%] | also measured
COc1cc(-c2nn(-c3cccc(NC(=O)c4ccc(Cl)c(C(F)(F)F)c4)c3)cc2-c2ccncc2)ccc1Cl | 104 | 91 | 73 | -12 | 100 | 96 | 100 | 93 | 108 | 100 | 90 | 99 | 89 | 98 | 16 | 89 | 91 | 100 | 9 | 44 | growth at 0.03 µM [15]: 94%; growth at 0.003 µM [22]: 80%; growth at 0.003 µM [23]: 98%; growth at 0.3 µM [24]: 92%; growth at 30 µM [25]: 5%; growth at 30 µM [26]: 24%; growth at 0.03 µM [27]: 94%; growth at 0.003 µM [28]: 89%; growth at 0.003 µM [29]: 99%; growth at 3 µM [30]: 44%; growth at 0.3 µM [31]: 101%; growth at 0.003 µM [32]: 94%; growth at 0.003 µM [33]: 92%; growth at 30 µM [34]: 35%; growth at 0.03 µM [35]: 99%; growth at 3 µM [36]: 57%; growth at 0.3 µM [37]: 93%
O=C(Nc1cccc(-n2cc(-c3ccncc3)c(-c3ccc(Cl)c(O)c3)n2)c1)Nc1ccc(Cl)c(Cl)c1 | 100 | 71 | 47 | -37 | 99 | 96 | 100 | 95 | 112 | 99 | 104 | 102 | 104 | 96 | 8 | 90 | 90 | 102 | -18 | 17 | growth at 0.003 µM [22]: 92%; growth at 0.003 µM [23]: 93%; growth at 0.3 µM [24]: 85%; growth at 30 µM [25]: -21%; growth at 0.03 µM [27]: 92%; growth at 0.003 µM [28]: 96%; growth at 0.003 µM [29]: 93%; growth at 3 µM [30]: 20%; growth at 0.3 µM [31]: 90%; growth at 0.003 µM [32]: 97%; growth at 0.003 µM [33]: 98%; growth at 30 µM [34]: 3%; growth at 0.03 µM [35]: 96%; growth at 3 µM [36]: 19%; growth at 0.3 µM [37]: 95%
O=C(Nc1cccc(-n2cc(-c3ccncc3)c(-c3ccc(Cl)c(O)c3)n2)c1)Nc1ccc(Cl)c(C(F)(F)F)c1 | 113 | 88 | 9 | -16 | 102 | 93 | 105 | 97 | 101 | 94 | 88 | 95 | 109 | 97 | -29 | 89 | 85 | 89 | -43 | -9 | growth at 0.03 µM [15]: 92%; growth at 0.003 µM [22]: 100%; growth at 0.003 µM [23]: 95%; growth at 0.3 µM [24]: 86%; growth at 30 µM [25]: -8%; growth at 30 µM [26]: -11%; growth at 0.03 µM [27]: 103%; growth at 0.003 µM [28]: 96%; growth at 0.003 µM [29]: 100%; growth at 0.3 µM [31]: 80%; growth at 0.003 µM [32]: 98%; growth at 0.003 µM [33]: 113%; growth at 30 µM [34]: -6%; growth at 0.03 µM [35]: 94%; growth at 3 µM [36]: -4%; growth at 0.3 µM [37]: 89%
